These results are taken from US10533044B2, “Integrin Antagonists” (The General Hospital Corporation, priority 2014, dated 2020).

The target in data set [1] is T1, αVβ3^N/S (Homo sapiens, UniProt P05106+P06756, N365S). Nature of the data set: biochemical. As to conditions: IC50, inhibition of fibrinogen binding to αVβ3^N/S, HEK293 cells, constitutively active αVβ3^N/S.
Another data set concerns αVβ3. Nature of the data set: AP5 LIBS expression on αVβ3^N/S or Mn2+-activated αVβ3 in presence of R-epti-D. Format: cell-based. As to conditions: αVβ3^N/S in Ca2+/Mg2+ or Mn2+-activated αVβ3; preliminary study. Here is the method:
FIG. 16. […] One experiment was done under each condition. […] Common residues are in black. […] Spheres represent the metal ion at MIDAS.
K562-αVβ3 cells, transiently transfected HEK293T or αVβ3^+M21 cells (0.5×10^6 in 100 μl WB) were incubated in the absence or presence of unlabeled soluble FN10 (5 μg) in Ca^2+/Mg^2+ or in Mn^2+ (30 min; at 25° C.). Alexa647-labeled AP5 Fab (plus Alexa488-labeled AP3, when HEK293T cells were used), unlabeled anti-LIBS-1 (all to 10 μg/ml) or LIBS-6 ascites (to 1:50 dilution) were added, and the cells incubated for an additional 30 min before washing. APC-labeled goat anti-mouse Fc-specific antibody was added to anti-LIBS-1- or anti-LIBS-6-bound M21 cells, cells were incubated for an additional 30 min at 4° C. then washed, resuspended, fixed in 4% paraformaldehyde and analyzed by flow cytometry. LIBS epitope expression was measured and expressed as MFI (in case of K562-αVβ3 or M21 cells) and normalized (in case of HEK293T cells) by dividing its MFI by the MFI for Alexa488-labeled AP3, and multiplied by 100.

The next data set addresses platelet integrin αIIbβ3 (Homo sapiens, UniProt P05106+P08514). As to conditions: parenteral use; cited from earlier work.
For data set [2], the target named is T1, αVβ3^N/S.

Positions of bridges follow the written chain, without caps; N, C: chain ends. Non-standard residues stand in square brackets, D forms with d. Residues, ends and D or L forms follow the SMILES beside them. hArg = N=C(N)NCCCC[C@H](N)C(=O)O; Mpa = O=C(O)CCS

T1 sequence (P06756 31-889 limits assumed): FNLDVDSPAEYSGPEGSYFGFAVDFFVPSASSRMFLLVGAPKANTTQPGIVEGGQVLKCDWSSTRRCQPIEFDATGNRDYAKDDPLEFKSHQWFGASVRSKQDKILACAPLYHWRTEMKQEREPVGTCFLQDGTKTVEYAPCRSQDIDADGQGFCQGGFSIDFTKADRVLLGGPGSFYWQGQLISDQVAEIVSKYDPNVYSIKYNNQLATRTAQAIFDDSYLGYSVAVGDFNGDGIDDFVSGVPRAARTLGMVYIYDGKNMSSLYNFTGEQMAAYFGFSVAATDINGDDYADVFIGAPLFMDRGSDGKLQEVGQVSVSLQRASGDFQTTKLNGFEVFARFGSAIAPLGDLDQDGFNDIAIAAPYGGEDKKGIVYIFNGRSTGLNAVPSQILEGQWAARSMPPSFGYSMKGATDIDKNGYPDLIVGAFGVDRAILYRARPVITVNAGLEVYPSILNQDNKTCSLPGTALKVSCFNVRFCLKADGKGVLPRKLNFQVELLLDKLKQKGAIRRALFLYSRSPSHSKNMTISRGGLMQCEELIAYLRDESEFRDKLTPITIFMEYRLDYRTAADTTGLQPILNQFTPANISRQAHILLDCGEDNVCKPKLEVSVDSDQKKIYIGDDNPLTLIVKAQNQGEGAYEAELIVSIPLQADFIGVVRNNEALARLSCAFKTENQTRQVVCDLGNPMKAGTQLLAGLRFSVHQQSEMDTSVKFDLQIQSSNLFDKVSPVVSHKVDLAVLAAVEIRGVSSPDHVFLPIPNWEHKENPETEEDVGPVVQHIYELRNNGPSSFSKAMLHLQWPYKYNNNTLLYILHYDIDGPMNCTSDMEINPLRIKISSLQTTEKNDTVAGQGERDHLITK
T1 sequence (P06756 891-1048 partner limits assumed): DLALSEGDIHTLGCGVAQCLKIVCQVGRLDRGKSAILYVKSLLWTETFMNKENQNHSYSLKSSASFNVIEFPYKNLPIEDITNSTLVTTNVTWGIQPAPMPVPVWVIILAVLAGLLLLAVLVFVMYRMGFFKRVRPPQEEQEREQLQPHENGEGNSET
T1 sequence (P05106 27-788 N365S): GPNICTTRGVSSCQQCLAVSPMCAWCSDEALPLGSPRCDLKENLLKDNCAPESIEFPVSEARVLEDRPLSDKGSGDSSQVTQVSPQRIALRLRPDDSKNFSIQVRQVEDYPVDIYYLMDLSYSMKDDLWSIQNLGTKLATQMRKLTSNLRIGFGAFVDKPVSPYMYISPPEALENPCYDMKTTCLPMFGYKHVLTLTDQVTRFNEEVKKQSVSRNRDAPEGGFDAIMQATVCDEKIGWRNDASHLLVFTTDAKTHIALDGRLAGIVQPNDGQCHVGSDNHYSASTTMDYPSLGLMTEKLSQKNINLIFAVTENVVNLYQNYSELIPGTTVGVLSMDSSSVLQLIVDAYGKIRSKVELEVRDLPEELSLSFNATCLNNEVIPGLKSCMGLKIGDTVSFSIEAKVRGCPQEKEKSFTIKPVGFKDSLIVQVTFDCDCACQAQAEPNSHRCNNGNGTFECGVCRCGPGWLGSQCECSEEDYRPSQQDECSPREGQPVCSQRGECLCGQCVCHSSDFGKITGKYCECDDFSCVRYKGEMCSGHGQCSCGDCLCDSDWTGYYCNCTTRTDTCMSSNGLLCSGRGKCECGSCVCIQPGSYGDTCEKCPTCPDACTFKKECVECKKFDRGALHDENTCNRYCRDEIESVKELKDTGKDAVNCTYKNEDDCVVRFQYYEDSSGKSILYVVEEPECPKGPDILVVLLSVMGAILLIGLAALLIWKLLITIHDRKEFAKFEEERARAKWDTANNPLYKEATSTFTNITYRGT
Sequence of platelet integrin αIIbβ3 (P08514 32-887 limits assumed): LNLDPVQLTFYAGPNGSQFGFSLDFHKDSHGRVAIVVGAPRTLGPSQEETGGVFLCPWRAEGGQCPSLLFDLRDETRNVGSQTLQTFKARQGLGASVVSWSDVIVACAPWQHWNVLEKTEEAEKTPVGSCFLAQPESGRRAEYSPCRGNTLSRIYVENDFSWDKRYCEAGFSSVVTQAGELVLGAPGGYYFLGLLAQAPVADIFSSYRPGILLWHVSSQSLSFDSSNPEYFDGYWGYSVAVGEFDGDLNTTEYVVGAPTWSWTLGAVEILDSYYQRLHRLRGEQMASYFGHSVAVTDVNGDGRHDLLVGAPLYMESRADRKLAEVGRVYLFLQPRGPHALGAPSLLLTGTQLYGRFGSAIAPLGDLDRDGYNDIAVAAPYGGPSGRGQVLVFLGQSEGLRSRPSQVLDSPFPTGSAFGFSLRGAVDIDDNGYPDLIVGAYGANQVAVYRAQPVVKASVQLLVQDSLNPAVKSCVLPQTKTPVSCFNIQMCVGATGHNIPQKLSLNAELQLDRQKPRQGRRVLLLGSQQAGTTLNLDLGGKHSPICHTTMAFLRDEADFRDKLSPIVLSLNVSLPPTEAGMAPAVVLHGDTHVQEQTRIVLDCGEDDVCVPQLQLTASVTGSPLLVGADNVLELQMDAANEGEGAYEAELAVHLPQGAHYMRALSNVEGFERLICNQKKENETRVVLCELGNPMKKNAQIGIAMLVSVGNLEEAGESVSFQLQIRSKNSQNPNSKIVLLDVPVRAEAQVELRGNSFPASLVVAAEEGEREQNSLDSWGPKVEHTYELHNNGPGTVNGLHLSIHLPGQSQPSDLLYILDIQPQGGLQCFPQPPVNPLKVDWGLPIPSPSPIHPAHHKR
Sequence of platelet integrin αIIbβ3 (P08514 891-1039 partner limits assumed): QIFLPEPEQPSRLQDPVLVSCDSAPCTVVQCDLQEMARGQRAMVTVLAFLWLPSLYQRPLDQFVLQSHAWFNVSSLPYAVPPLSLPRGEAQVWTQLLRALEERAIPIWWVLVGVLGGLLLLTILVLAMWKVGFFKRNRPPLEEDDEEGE
Sequence of platelet integrin αIIbβ3 (P05106 27-788): as the sequence (P05106 27-788 N365S) above, with S339N counted along it

Turning to `N=C(N)NCCC[C@@H]1NC(=O)CCSSC[C@@H](C(N)=O)NC(=O)[C@@H]2CCCN2C(=O)[C@@H](Cc2c[nH]c3ccccc23)NC(=O)[C@H](CC(=O)O)NC(=O)CNC1=O` [R-epti-D] ([Mpa]RGD[dW]PC-NH2; disulfide 1-7), the values for the IC50 at αVβ3^N/S [1] and at αVβ3^N/S [1] (converted) were 2080 nM and about 2000 nM, respectively. In addition, the “AP5 LIBS expression” value with αVβ3 is recorded as “reduced AP5 LIBS expression”.

In the case of `N=C(N)NCCCC[C@@H]1NC(=O)CCSSC[C@@H](C(N)=O)NC(=O)[C@@H]2CCCN2C(=O)[C@H](Cc2c[nH]c3ccccc23)NC(=O)[C@H](CC(=O)O)NC(=O)CNC1=O` [eptifibatide] ([Mpa][hArg]GDWPC-NH2; disulfide 1-7), the “Patients with severe thrombocytopenia” value on platelet integrin αIIbβ3 is on record as about 2%. For the same compound, the “Binding to αVβ3” value on αVβ3^N/S [2] is reported as “does not bind”.
